Broadly, the IC50 is the midpoint of a concentration-inhibition curve. A lower IC50 goes with greater potency.

We go through 1 compound from patent US9808434B2, “Compound for treating cancer and diabetes” (CITY OF HOPE, priority 2011, dated 2017).

The test system of series [1] is B16 mouse melanoma tumor. In words: Histopathology (IHC) of B16 melanoma tumor sections. The settings on record: treated vs control tumors. Type of series: in vivo. Here is the method: B16 melanoma bearing C57B mice tumor sections were treated without or with COH-SR4, and used for histopathologic analyses.
H&E stain, or hematoxylin and eosin stain, a general gross morphology stain were used. […] Eosin was pink and stained proteins nonspecifically. In a typical tissue, nuclei were stained blue, whereas the cytoplasm and extracellular matrix had varying degrees of pink staining. The pink coloration in the control tumor cells indicated cell proliferation (FIG. 57)
IHC analyses for Ki-67 expression (marker of cellular proliferation), CD31 (angiogenesis marker), and pAMPK (cellular regulator of lipid and glucose metabolism) from tumors in mice of control and COH-SR4-treated groups were carried out. Statistical significance of difference was determined by two-tailed Student's t test. When COH-SR4-treated tumor sections were compared with the control, p<0.001. […] Sections were counterstained with Hematoxylin (blue). Photomicrographs at 40× magnification were acquired using Olympus Provis AX70 microscope. Percent staining was determined by measuring positive immuno-reactivity per unit area. Arrows indicated the areas for positive staining for an antigen. The intensity of antigen staining was quantified by digital image analysis. Bars represented mean+S.E. (n=5); “*” means p<0.001 compared with control.

The subject of series [2] is H1417 cells. In words: MTT assay, H1417. In kind it is cell-based. Conditions: Homo sapiens, NCI-H1417, 48 h. Here is the method:
Cell density measurements were performed using a hemocytometer to count reproductive cells resistant to staining with trypan blue. Approximately 20,000 cells were plated into each well of 96-well flat-bottomed micro-titer plates. After 12 h or 24 h incubation at 37° C., medium containing either COH-SR4 (ranging 0-200 μM) or elesclomol (ranging 0-20 μM) were added to the cells. After 24 h, 48 h or 96 h incubation, 20 μL of 5 mg/mL MTT were introduced to each well and incubated for 2 h. The plates were centrifuged and medium was decanted. Cells were subsequently dissolved in 100 μl DMSO with gentle shaking for 2 h at room temperature, followed by measurement of OD570 (91).
The effect of COH-SR4 was first examined in a NCI panel of cancer cell lines, the results of which indicated good activity of COH-SR4 towards lung cancer (FIG. 78A). […] Values are presented as mean±SD from two separate determinations with eight replicates each (n=16) (FIG. 78B). […] Standard colony-forming assay was performed and the colonies were counted using Innotech Alpha Imager HP. […] TUNEL assay was performed using Promega fluorescence detection kit and examined using Zeiss LSM 510 META laser-scanning fluorescence microscope with filters 520 and 620 nm. […]
A general note: Tetrazolium assays rely on reduction of a dye to a coloured formazan, in cell work by metabolically active cells.

Series [3] can be described thus: COH-SR4 in mice serum, HPLC analysis. Type of series: in vivo, mouse. The settings on record: 4 mg/kg oral. Here is the method: Hsd: Athymic nude nu/nu mice obtained from Harlan, Indianapolis, Ind. were used for the oral administration of COH-SR4 on lung cancer progression in in-vivo xenograft model. Twelve 10-weeks-old mice were divided into two groups of 6 animals (treated with corn oil (vehicle), and COH-SR4 4 mg/kg b.w.). All animals were subcutaneously injected with 2×10^6 H358 cells in 100 μL of PBS into one flank of each mouse. Treatment was started 10 days after the implantation of cells to see palpable tumor growth. Treatment consisted of 0.1 mg (4 mg/kg b.w.) of COH-SR4/mice in 200 μL corn oil by oral gavage alternate day. Control groups were treated with 200 μL corn oil by oral gavage alternate day. Animals were examined daily for signs of tumor growth and body weights were recorded. […] Tumors were measured in two dimensions using calipers. […] (FIG. 81B). […] Photographs of animals were taken at day 1, day 10, day 14, day 18, day 30 and day 60 after subcutaneous injection, are shown for all groups (FIG. 81D). The absorption of orally administered COH-SR4 in mice was assessed.

The subject of series [4] is hepatic genes. In words: Liver gene expression of HFD obese and db/db mice. In kind it is in vivo, mouse. The settings on record: RT-PCR and RNA-seq. The text has this:
Total RNA was isolated from livers of lean, vehicle or COH-SR4-treated HFD mice using standard protocols and subjected to quantitative RT-PCR using primers for key genes associated with lipid and fatty acid synthesis (Acaca, Pparg, Acly, Scd1, Srebf1, Hmgcr, Cpt1, Fasn) and gluconeogenesis (G6pc, Pck1). Livers of db/+ and db/db mice treated with vehicle or COH-SR4 were used for RNA-seq analysis. RNA isolation, purification, sequencing, library preparation and read alignments were done at the City of Hope Functional Genomics Core facility. Differential gene expression was identified from standard Partek workflow (Partek Genomics Suite v6.6, Partek, Inc) using ANOVA, with step-up FDR multiple testing correction p-value of <0.05 and 1.5× fold change. […] Databases utilized included GOTERM_BP_FAT (biological process) and Kyoto Encyclopedia of Genes and Genomes (KEGG_PATHWAY).
Total RNA was isolated from liver of control animals and HFD obese or db/db mice treated with vehicle or COH-SR4 (as described in Example 35). Relative mRNA expression (mean±SEM) of lipogenic and gluconeogenic genes were determined using real time RT-PCR and quantified using the comparative Ct method (FIG. 86A, ^#P<0.05, ^##P<0.01 vs. HFD). […] Key hepatic genes associated with lipid/fatty acid synthesis and glucose and amino acid metabolism regulated by COH-SR4 in db/db mice are shown in FIG. 86D.

Regarding `O=C(Nc1cc(Cl)cc(Cl)c1)Nc1cc(Cl)cc(Cl)c1` [COH-SR4, 1,3-bis(3,5-dichlorophenyl) urea], in series [1], the “CD31 (angiogenesis marker)” value was “decreased CD31”, the “Ki-67 expression (cellular proliferation)” value is recorded as “decreased Ki67” and the pAMPK entry was “increased pAMPK”. The same compound returned an IC50 in series [2] of 1.2 ± 0.2 µM. For the same compound, the serum concentration in series [3] came out at 1100 ± 300 nM. Besides, the hepatic pathways affected entry in series [4] is “downregulated hepatic lipogenesis and glucose metabolic pathways, while upregulating amino acid metabolism”.
